Consider two substances from article PMC6458997, “Deciphering the Molecular Mechanism Underpinning Phage Arbitrium Communication Systems” (Molecular Cell, 2019).

Assay [1] addresses T1, SPbeta AimR (Bacillus phage SPbeta, UniProt O64094).
T1 construct: expresses the full-length AimR (residues 1-386) with an N-terminal 6xHistag; 6xHis tag followed by TEV protease site (N, cleaved yes); made in house; host or cells: E. coli BL21 (DE3) RIL
The format is binding, Bacillus subtilis SPbeta phage. To be noted: WT SPbeta AimR, 20 μM protein, 20 mM Tris pH 8, 250 mM NaCl. How it is done:
(§1) The thermal shift assay was conducted in a 7500 Fast Real time PCR System (Applied Biosystems). Samples of 20 μL containing 5 × Sypro Orange (Sigma-Aldrich) and 20 μM of protein in a 20 mM Tris pH 8 and 250 mM NaCl buffer were loaded in 96-well PCR plates. To calculate the apparent Kd peptide concentrations from 0 to 2 μM were added to the mixture. Samples were heated from 20 to 85°C in steps of one degree. Fluorescent intensity was plotted versus temperature and integrated with GraphPad Prism software using a Boltzmann model to calculate melting temperatures.

The subject of assay [2] is SPbeta AimR bound to its operator. Type of assay: biochemical, Bacillus subtilis SPbeta phage. An excerpt: (§2) Gels were stained with RedSafe (Intron Biotechnology).
Assay [3] concerns SPbeta AimR N202A. Kind of assay: Thermal shift assay, mutant AimR N202A. The format is binding, Bacillus subtilis SPbeta phage. To be noted: residual stabilization versus WT. How it is done: as §1
The test system of assay [4] is SPbeta AimR D360A. Kind of assay: Thermal shift assay, mutant AimR D360A. The format is binding, Bacillus subtilis SPbeta phage. The following applies: residual stabilization versus WT. How it is done:
as §1

The subject of assay [5] is SPbeta AimR bound to putative SPbeta operators. The format is biochemical, Bacillus subtilis SPbeta phage. To be noted: pH 7.5.
Excerpt: as §2

Assay [6] has as its system AimR N202A bound to the AimR operator. Kind of assay: EMSA, AimP-induced DNA dissociation of mutant AimR N202A. The following applies: AimR 4 μM, probe 0.4 μM, HEPES pH 7.5, 10 min at room temperature. The format is biochemical, Bacillus subtilis SPbeta phage.
Excerpt: as §2
A general note: A gel shift assay detects complexes by their altered migration in electrophoresis.

Assay [7] concerns the target T1, SPbeta AimR. As to the kind of experiment: SEC-MALS, effect of AimP on AimR oligomeric state. The format is biochemical, Bacillus subtilis SPbeta phage. To be noted: 1 mM peptide in injected sample, 1 μM in running buffer; protein 5 mg/mL; 25 mM Tris pH 8, 250 mM NaCl. How it is done:
SEC-MALS experiments were performed using an AKTA pure system (GE Heralthcare) coupled to a Wyatt DAWN HELEOS-II MALS instrument and a Wyatt Optilab rEX differential refractometer (Wyatt). 50 μL of the protein samples were injected at a concentration of 5 mg/mL on a Superdex 200 HR 10/300 (GE Heralthcare) column equilibrated in 25 mM Tris pH 8, 250 mM NaCl. When the effect of the peptide in the oligomeric state was tested, 1 mM peptide was added to the injected sample and the running buffer was supplemented with peptide at a final concentration of 1 μM. The Astra 7.1.2 software from the manufacturer was used for acquisition and analysis of the data.
Background: SEC sorts molecules by how far they enter the pores of the column.

Assay [8] has as its system SPbeta AimR and operators presenting spacers from 12 bp to 35 bp. To be noted: pH 7.5. How it is done: AimR binding to its operator and the inhibition induced by the arbitrium peptides were analyzed by native polyacrylamide and agarose gel electrophoresis. […] Double strand DNA primer probes were purchased from Macrogen (Table S1 and Figure 3A). Purified PCR product or purchased probes (0.4μM) and AimR (4μM) protein were mixed in EMSA buffer (50 mM HEPES pH 7.5, 5 mM MgCl2, 75 mM NaCl and 0.5 mM EDTA). The samples were incubated for 10 min at room temperature. 8% polyacrylamide gels were electrophoresed in Tris-Borate-EDTA (TBE) buffer at 100V for one hour, followed by loading of the samples. Electrophoresis was then performed in TBE buffer at 4°C for about 150 min at 100V. Agarose gels (0.8%–1.2%) were run in TAE buffer at room temperature for about 100 min at 80V. Gels were stained with RedSafe (Intron Biotechnology).

Entries after “also recorded” stand apart in the source; their conditions may differ. Like-named read-outs stand apart in the source and are kept apart here.

T1 sequence (O64094 whole entry, the tested form may be a part): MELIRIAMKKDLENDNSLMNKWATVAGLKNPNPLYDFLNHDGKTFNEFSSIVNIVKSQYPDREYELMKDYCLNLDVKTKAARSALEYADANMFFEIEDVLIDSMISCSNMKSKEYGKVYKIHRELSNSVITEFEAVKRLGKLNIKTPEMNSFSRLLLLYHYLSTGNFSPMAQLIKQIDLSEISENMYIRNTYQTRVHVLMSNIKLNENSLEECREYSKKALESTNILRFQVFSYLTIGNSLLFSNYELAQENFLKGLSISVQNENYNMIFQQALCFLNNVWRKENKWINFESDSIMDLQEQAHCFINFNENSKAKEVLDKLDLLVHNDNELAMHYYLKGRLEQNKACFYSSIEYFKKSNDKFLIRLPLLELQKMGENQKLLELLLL

Turning to “SAIRGA [AimP peptide specific for phi3T phage, negative control for SPbeta AimR, reference compound]”, the “increment in the Tm (in words)” value in assay [1] is recorded as “No increment in the Tm”. Moreover, the “effect of peptide on AimR-DNA binding” value in assay [2] (SPbeta AimR 4 μM, DNA probe 0.4 μM, 50 mM HEPES pH 7.5, 5 mM MgCl2, 75 mM NaCl, 0.5 mM EDTA, 10 min at room temperature) is given as “had no effect”.

Turning to GMPRGA, in assay [1], the “increment in the Tm (in words)” value was “strong stabilization of SPbeta AimR”. In assay [1] (5 × Sypro Orange, 20 to 85°C in steps of one degree, one of three independent experiments), the “melting temperature (Tm) of AimR in presence of peptide” value worked out at 58.4 °C. In addition, the “stabilization induced by AimP, AimR N202A” value in assay [3] was found to be 1 °. In addition, the “stabilization induced by AimP, AimR D360A” value in assay [4] came to 1 °. The “effect of peptide on AimR-DNA binding” value in assay [2] (pH 7.5) is on record as “induced the release of AimR from DNA; also recorded: specifically disrupts the SPbeta AimR binding to its operator”. Moreover, in assay [5], the “DNA release from putative SPbeta operators” value is listed as “induces DNA release”. Moreover, the “effect of AimP on DNA dissociation of AimR^N202A” value in assay [6] is on record as “did not induce DNA dissociation”. Also, in assay [7], the “effect of AimP on AimR dimer” value was “did not induce SPbeta AimR dimer dissociation”. In assay [8], the “DNA binding of AimR-AimP complex” value is listed as “unable to bind DNA”.
